Measured values reported in ChEMBL document CHEMBL1154949, “2-Amino-aryl-7-aryl-benzoxazoles as potent, selective and orally available JAK2 inhibitors” (Bioorg Med Chem Lett, 2010).

Columns and labels:
[1] = biological target: Non-receptor tyrosine-protein kinase TYK2 (Homo sapiens, UniProt P29597); test: Inhibition of GST-tagged TYK2 assessed as inhibition of biotinylated IRS1 substrate phosphorylation after 60 mins by caliper mobility shift assay
[2] = biological target: T1, Tyrosine-protein kinase JAK3 (Homo sapiens, UniProt P52333); test: Inhibition of GST-tagged JAK3 assessed as inhibition of biotinylated JAK3tide peptide phosphorylation after 60 mins by caliper mobility shift assay
T1 sequence (P52333 whole entry): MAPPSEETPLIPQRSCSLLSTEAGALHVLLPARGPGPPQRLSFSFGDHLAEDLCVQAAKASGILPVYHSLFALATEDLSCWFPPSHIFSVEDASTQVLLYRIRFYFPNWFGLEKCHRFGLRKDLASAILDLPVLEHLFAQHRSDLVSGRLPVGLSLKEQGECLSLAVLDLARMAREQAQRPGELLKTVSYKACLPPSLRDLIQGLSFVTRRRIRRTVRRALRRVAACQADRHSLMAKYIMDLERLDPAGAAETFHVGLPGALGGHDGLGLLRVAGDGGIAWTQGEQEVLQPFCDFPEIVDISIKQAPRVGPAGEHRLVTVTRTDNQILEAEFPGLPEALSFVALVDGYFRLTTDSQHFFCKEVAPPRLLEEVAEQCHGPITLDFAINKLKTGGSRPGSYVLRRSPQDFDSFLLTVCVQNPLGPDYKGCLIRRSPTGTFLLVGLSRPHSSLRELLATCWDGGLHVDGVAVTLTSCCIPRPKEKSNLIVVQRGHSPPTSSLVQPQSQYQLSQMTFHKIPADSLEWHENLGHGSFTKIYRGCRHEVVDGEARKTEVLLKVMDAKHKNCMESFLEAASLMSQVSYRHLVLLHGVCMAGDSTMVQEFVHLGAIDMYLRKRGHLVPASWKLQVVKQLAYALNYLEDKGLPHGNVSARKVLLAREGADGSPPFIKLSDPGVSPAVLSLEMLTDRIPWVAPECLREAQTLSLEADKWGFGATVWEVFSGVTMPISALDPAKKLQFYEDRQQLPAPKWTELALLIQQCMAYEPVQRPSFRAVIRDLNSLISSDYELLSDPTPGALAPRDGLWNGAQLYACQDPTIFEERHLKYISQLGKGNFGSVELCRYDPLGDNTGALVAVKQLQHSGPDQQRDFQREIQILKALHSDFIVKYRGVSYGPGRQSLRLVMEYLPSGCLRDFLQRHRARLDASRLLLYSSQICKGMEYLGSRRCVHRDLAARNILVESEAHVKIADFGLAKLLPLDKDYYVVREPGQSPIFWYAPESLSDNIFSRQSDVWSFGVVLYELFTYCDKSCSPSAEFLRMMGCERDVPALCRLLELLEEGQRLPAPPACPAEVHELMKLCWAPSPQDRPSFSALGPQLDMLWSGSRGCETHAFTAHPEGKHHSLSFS

[3] = biological target: Tyrosine-protein kinase JAK2 (Homo sapiens, UniProt O60674); test: Inhibition of GST-tagged JAK2 assessed as inhibition of biotinylated JAK3tide peptide phosphorylation after 60 mins by caliper mobility shift assay
Sequence of Tyrosine-protein kinase JAK2 (O60674 whole entry): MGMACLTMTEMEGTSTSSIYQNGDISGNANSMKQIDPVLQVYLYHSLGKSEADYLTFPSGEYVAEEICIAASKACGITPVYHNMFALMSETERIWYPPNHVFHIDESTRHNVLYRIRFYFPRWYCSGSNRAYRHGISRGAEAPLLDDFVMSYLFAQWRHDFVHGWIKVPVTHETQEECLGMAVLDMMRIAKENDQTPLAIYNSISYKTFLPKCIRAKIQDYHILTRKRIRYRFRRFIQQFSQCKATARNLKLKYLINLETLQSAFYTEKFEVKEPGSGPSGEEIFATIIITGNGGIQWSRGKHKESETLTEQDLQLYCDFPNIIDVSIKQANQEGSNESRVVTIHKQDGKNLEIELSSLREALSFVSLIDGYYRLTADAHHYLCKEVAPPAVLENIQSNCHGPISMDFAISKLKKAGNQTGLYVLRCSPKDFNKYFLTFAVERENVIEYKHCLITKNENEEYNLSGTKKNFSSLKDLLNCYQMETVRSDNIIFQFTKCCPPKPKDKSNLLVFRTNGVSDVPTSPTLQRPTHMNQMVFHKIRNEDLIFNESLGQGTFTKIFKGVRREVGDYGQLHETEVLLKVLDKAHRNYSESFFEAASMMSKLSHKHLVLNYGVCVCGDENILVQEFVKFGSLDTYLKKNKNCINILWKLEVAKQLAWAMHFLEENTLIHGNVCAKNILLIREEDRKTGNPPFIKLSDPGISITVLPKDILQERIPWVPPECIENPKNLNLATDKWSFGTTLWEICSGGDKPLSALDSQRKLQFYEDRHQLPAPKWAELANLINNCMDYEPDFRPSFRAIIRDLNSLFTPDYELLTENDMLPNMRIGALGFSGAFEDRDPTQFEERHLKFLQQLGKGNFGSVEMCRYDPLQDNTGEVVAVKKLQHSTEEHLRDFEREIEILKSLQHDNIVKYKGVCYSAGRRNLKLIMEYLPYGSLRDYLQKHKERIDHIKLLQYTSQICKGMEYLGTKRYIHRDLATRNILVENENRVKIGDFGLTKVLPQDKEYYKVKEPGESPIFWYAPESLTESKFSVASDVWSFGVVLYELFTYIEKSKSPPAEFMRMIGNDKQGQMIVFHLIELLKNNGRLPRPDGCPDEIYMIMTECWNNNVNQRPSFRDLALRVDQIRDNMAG

[4] = Antiproliferative activity against human SET2 cells harboring JAK2 V617F mutant after 72 hrs by […]; assay type: functional; conditions: SET-2, 72 h
[5] = biological target: Tyrosine-protein kinase JAK1 (Homo sapiens, UniProt P23458); test: Inhibition of GST-tagged JAK1 assessed as inhibition of biotinylated IRS1 substrate phosphorylation after 60 mins by caliper mobility shift assay
Sequence of Tyrosine-protein kinase JAK1 (P23458 whole entry): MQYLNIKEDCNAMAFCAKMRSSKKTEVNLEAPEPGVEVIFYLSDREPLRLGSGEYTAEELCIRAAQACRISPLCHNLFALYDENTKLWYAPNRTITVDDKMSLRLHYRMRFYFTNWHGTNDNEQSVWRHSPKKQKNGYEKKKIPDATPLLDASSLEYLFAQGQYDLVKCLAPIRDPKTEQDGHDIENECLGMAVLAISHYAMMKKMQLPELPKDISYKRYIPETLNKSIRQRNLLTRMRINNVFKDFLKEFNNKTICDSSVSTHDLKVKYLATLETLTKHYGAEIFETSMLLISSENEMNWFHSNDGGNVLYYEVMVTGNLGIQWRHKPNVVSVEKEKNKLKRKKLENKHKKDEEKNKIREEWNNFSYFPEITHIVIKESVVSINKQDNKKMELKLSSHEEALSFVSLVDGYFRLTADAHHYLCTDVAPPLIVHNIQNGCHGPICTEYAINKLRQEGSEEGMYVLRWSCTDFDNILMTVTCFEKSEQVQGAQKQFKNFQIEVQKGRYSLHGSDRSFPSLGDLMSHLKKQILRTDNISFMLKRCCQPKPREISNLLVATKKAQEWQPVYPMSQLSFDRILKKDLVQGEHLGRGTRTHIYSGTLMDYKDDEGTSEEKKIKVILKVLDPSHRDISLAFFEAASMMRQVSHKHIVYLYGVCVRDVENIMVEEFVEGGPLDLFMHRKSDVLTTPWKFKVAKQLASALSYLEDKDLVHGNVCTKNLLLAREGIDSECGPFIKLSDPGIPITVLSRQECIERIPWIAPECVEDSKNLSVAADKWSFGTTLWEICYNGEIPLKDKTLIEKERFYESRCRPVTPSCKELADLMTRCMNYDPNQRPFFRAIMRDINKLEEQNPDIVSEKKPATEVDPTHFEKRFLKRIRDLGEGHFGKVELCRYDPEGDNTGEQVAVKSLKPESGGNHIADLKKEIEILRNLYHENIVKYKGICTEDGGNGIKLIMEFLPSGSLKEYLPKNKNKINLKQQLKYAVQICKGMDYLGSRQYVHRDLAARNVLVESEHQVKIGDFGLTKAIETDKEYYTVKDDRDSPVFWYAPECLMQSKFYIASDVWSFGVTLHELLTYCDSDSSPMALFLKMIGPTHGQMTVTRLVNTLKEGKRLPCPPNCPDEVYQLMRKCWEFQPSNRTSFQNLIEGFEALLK

[6] = Terminal half life in rat at 0.5 ml/kg, iv; assay type: ADME, organism-based; conditions: in vivo
[7] = Clearance in rat at 0.5 ml/kg, iv; assay type: ADME, organism-based; conditions: in vivo
[8] = Oral bioavailability in rat at 2.5 ml/kg; assay type: ADME, organism-based; conditions: in vivo
Rattus norvegicus [9] = test: Dose normalized AUC in rat at 1 mg/kg, po; assay type: ADME, organism-based; set-up: dose 1 mg/kg, route oral; conditions: in vivo
[10] = Volume of distribution at steady state in rat at 0.5 ml/kg, iv; assay type: ADME, organism-based; conditions: in vivo, read-out: Vdss
Rattus norvegicus [11] = test: Dose normalized AUC in rat at 1 mg/kg, iv; assay type: ADME, organism-based; set-up: dose 1 mg/kg, route intravenous; conditions: in vivo
[12] = Tmax in rat at 2.5 ml/kg, po; assay type: ADME, organism-based; conditions: in vivo
[13] = Cmax in rat at 2.5 ml/kg, po; assay type: ADME, organism-based; set-up: dose 2.5 ml/kg, route oral; conditions: in vivo

Sequence of Non-receptor tyrosine-protein kinase TYK2 (P29597 whole entry): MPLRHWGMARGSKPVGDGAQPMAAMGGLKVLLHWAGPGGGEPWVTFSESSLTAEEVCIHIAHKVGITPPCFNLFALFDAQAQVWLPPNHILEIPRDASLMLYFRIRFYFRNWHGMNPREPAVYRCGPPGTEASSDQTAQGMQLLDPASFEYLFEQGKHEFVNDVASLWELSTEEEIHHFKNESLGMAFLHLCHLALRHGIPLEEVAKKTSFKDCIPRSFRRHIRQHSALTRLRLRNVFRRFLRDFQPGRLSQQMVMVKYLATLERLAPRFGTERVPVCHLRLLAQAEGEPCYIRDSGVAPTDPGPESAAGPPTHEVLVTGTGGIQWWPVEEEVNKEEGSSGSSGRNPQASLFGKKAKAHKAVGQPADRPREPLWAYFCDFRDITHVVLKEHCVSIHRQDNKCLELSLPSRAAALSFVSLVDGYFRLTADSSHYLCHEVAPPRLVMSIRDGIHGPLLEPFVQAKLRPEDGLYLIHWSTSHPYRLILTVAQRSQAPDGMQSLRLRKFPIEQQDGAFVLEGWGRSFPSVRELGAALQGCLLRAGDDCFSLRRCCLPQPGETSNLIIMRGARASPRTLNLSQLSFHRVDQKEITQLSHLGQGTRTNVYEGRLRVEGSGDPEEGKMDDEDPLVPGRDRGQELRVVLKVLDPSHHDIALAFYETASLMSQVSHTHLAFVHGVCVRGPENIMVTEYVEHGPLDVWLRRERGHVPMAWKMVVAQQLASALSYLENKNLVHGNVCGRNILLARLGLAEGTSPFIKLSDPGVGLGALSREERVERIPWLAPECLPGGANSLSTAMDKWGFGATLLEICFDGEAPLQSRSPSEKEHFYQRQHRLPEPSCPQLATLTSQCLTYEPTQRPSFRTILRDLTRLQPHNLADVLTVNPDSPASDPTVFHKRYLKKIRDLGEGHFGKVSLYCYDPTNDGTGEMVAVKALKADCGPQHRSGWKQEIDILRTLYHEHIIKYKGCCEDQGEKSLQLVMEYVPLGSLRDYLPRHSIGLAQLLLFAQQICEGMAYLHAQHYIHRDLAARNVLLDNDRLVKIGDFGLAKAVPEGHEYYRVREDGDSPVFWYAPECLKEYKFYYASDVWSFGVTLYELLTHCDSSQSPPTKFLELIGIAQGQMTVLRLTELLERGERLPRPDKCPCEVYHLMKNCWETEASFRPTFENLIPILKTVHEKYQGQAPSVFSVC

Row | SMILES | IC50 [1] | IC50 [2] | IC50 [3] | IC50 [5] | half-life [6] | clearance [7] | bioavailability [8] | AUC (Rattus norvegicus [9]) | Vd [10] | AUC (Rattus norvegicus [11]) | Tmax [12] | Cmax [13] | GI50 [4]
1 | COc1cc(Nc2nc3cccc(-c4ccc5ncccc5c4)c3o2)cc(OC)c1OC | 1400 nM | 670 nM | 8 nM | 210 nM | – | – | – | – | – | – | – | – | 500 nM
2 | CNC(=O)c1ccc(Nc2nc3cccc(-c4cc(F)c(CN5CCOCC5)c(F)c4)c3o2)cc1C | 120 nM | 190 nM | 5 nM | 48 nM | 3.2 h | 15 mL/min/kg | 102% | 2.435 µM·h | 2.3 L/kg | 2.391 µM·h | 3.5 h | 242 nM | 260 nM
3 | Cc1cc(Nc2nc3cccc(-c4ccc(C(=O)N5CCOCC5)cc4)c3o2)ccc1C(=O)N(C)C | – | – | 8 nM | 130 nM | – | – | – | – | – | – | – | – | 490 nM
4 | Cc1cc(-c2cccc3nc(Nc4ccc(N5CCN(C)CC5)cc4)oc23)ccc1C(=O)N1CCOCC1 | 300 nM | 170 nM | 8 nM | 67 nM | – | – | – | – | – | – | – | – | 200 nM
5 | COc1cc(Nc2nc3cccc(-c4ccc(NS(C)(=O)=O)cc4)c3o2)cc(OC)c1OC | 150 nM | 130 nM | 5 nM | 47 nM | – | – | – | – | – | – | – | – | 130 nM
6 | COc1ccc(-c2cccc3nc(Nc4cc(OC)c(OC)c(OC)c4)oc23)cc1 | > 10000 nM | > 10000 nM | – | 8900 nM | – | – | – | – | – | – | – | – | –
7 | Cc1cc(Nc2nc3cccc(-c4cc(F)c(CN5CCOCC5)c(F)c4)c3o2)ccc1C(=O)NCCCN(C)C | 97 nM | 220 nM | 5 nM | 35 nM | – | – | – | – | – | – | – | – | 410 nM
8 | Cc1cc(Nc2nc3cccc(-c4cc(F)c(CN5CCOCC5)c(F)c4)c3o2)ccc1C(=O)N(C)C | 200 nM | 160 nM | 5 nM | 140 nM | – | – | – | – | – | – | – | – | 200 nM
9 | COc1cc(Nc2nc3cccc(-c4ccc(CN5CCOCC5)cc4)c3o2)cc(OC)c1OC | 310 nM | 300 nM | – | 82 nM | – | – | – | – | – | – | – | – | 420 nM
10 | COc1cc(Nc2nc3cccc(-c4ccc(C(=O)N5CCOCC5)cc4)c3o2)cc(OC)c1OC | 110 nM | 400 nM | 8 nM | 27.5 nM | – | – | – | – | – | – | – | – | 160 nM

Now from value to molecule, other results behind:

Row | IC50 [1] | IC50 [2] | IC50 [3] | IC50 [5] | half-life [6] | clearance [7] | bioavailability [8] | AUC (Rattus norvegicus [9]) | Vd [10] | AUC (Rattus norvegicus [11]) | Tmax [12] | Cmax [13] | SMILES | GI50 [4]
11 | 640 nM | 450 nM | 110 nM | 760 nM | – | – | – | – | – | – | – | – | COc1cc(Nc2nc3cccc(-c4ccccn4)c3o2)cc(OC)c1OC | –
12 | 3600 nM | 2000 nM | 150 nM | 680 nM | – | – | – | – | – | – | – | – | COc1cc(Nc2nc3cccc(-c4cccc(NS(C)(=O)=O)c4)c3o2)cc(OC)c1OC | –
13 | 730 nM | 620 nM | 39 nM | 180 nM | – | – | – | – | – | – | – | – | CN(C)C(=O)c1ccc(Nc2nc3cccc(-c4ccc(C(=O)N5CCOCC5)cc4)c3o2)cc1 | –
14 | 3400 nM | > 10000 nM | – | 710 nM | – | – | – | – | – | – | – | – | COc1cc(Nc2nc3cccc(-c4ccccc4)c3o2)cc(OC)c1OC | –
15 | > 10000 nM | > 10000 nM | 440 nM | 5300 nM | – | – | – | – | – | – | – | – | COc1cc(Nc2nc3cccc(-c4cccc(Cl)c4)c3o2)cc(OC)c1OC | –
16 | 63 nM | – | < 3 nM | 22 nM | – | – | – | – | – | – | – | – | COc1cc(Nc2nc3cccc(-c4ccc(C(=O)N5CCOCC5)c(F)c4)c3o2)cc(OC)c1OC | 150 nM
